Laboratory results taken from patent US9981972B2, “N-hydroxy bicyclic hydantoin carbamates as tools for identification of serine hydrolase targets” (ABIDE THERAPEUTICS, INC., priority 2014, dated 2018).
Entries after “also recorded” stand apart in the source; their conditions may differ.

Tests used:
human LYPLA1 = target: T1, human LYPLA1 (Homo sapiens, UniProt O75608); experiment: IC50 by gel-based competitive ABPP in vitro, soluble HeLa cell proteome; format: biochemical; details: human LYPLA isoform, three replicates; Table 2 prints no unit, nM; read-out: LYPLA1 IC50
T1 construct: endogenous human LYPLA1/2 in a HeLa soluble proteome; endogenous in cells; host or cells: HeLa (soluble proteome in vitro; cultured cells in situ)
T1 sequence (O75608 whole entry, canonical isoform): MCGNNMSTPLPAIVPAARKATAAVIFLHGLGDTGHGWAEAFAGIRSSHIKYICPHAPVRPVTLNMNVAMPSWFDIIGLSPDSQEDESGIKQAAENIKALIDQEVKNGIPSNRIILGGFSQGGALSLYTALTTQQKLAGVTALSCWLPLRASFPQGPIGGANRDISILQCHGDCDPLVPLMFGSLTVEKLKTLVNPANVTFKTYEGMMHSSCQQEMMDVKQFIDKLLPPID
Procedure: (§1) Assay Overview: The purpose of this assay was to determine IC50 values of powder samples of test compounds for enzyme of interest activity, and anti-targets in a complex proteomic lysate using a gel-based competitive ABPP assay. In this assay, a complex proteome was incubated with test compound followed by reaction with FP-Rh and SDS-PAGE analysis as described above.
(§2) Protocol Summary: Soluble HeLa cell proteome (50 μL reaction volume, 1 mg/mL in DPBS) or mouse brain membrane proteome (50 μL reaction volume, 1 mg/mL in DPBS) was treated with varying concentrations of test compound (1 μL of a 50× stock in DMSO) for 30 minutes at 37° C. FP-Rh (1 μL of 50× stock in DMSO) was added to a final concentration of 2 μM. The reaction was incubated for 30 minutes at 25° C., quenched with 16 μL 4×SDS-PAGE loading buffer (reducing), separated by SDS-PAGE and visualized by in-gel fluorescent scanning. The percentage activity remaining was determined by measuring the integrated optical density of the enzymes of interest, and anti-target bands relative to a DMSO-only (no compound) control. IC50 values were determined from dose-response curves from three replicates at each inhibitor concentration: 1, 10, 100, 1000, 10000 nM and 0.01, 0.1, 1, 10, 100, 1000, 10000, 50000, and 100000 nM.

human LYPLA2 = target: T2, human LYPLA2 (Homo sapiens, UniProt O95372); experiment: as above; format: biochemical; details: human LYPLA isoform, three replicates; Table 2 prints no unit, nM; read-out: LYPLA2 IC50
T2 construct: endogenous human LYPLA1/2 in a HeLa soluble proteome; endogenous in cells; host or cells: HeLa (soluble proteome in vitro; cultured cells in situ)
T2 sequence (O95372 whole entry, canonical isoform): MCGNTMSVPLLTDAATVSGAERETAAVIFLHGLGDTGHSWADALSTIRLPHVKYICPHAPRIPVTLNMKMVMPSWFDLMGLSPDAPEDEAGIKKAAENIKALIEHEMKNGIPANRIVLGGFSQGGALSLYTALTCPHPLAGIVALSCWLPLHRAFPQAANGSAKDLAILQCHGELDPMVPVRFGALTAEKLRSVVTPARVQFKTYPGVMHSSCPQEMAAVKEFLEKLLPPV
Procedure: as §1, §2

[1] = test system: FP-sensitive SHs in the mouse brain membrane proteome; experiment: Gel-based competitive ABPP in vitro, mouse brain membrane proteome, anti-targets; format: biochemical; details: for Anti-target(s) 0.1 μM: SHs with at least 50% inhibition at 0.1 μM compound; for Anti-target(s) 1 μM: SHs with at least 50% inhibition at 1 μM compound; for Anti-target(s) 10 μM: SHs with at least 50% inhibition at 10 μM compound; for Anti-target(s) 100 μM: SHs with at least 50% inhibition at 100 μM compound
Procedure: (§3) Assay Overview: The purpose of this assay was to determine whether test compounds can inhibit LYPLA1 and LYPLA2 in a complex proteomic lysate and to assess anti-target inhibition using a competitive activity-based proteomic profiling (ABPP) assay. In this assay, a complex proteome endogenously expressing LYPLA1/2 was incubated with test compound followed by reaction with a rhodamine-conjugated fluorophosphonate (FP-Rh) serine-hydrolase specific activity-based probe. The reaction products were separated by SDS-PAGE and visualized in-gel using a flatbed fluorescence scanner. The percentage activity remaining was determined by measuring the integrated optical density of the bands. […] Percent inhibition was calculated relative to a DMSO (no compound) control.
(§4) Protocol Summary: Mouse brain membrane proteome (50 μL reaction volume, 1 mg/mL in DPBS) was treated with 0.1-100 μM test compound (1 μL of a 50× stock in DMSO) for 30 minutes at 37° C. FP-Rh (1 μL of 50× stock in DMSO, Thermo #88318) was added to a final concentration of 2 μM. The reactions were incubated for 30 minutes at 25° C., quenched with 16 μL 4×SDS-PAGE loading buffer (reducing), separated by SDS-PAGE and visualized by in-gel fluorescent scanning. The percentage activity remaining was determined by measuring the integrated optical density of the bands relative to a DMSO-only (no compound) control. Assay Cutoff: Compounds with ≥50% inhibition of targets at 1 μM test compound concentration were considered active.
(§5) N-Hydroxy bicyclic hydantoin carbamates (Compounds 1-20) listed in Table 1 were subjected to gel-based competitive ABPP screening to assess SH reactivity against more than 20 FP-sensitive SHs visible by 1D SDS-PAGE separation and fluorescent detection in the mouse brain proteome (see FIG. 1). […] Compound treatment ([…], 30 minutes) was followed by labeling with SH-specific ABPP probe FP-Rh (2 μM, 30 minutes), 1D-SDS-PAGE, and in-gel fluorescent visualization of FP-labeled proteins. Assignment of LYPLA1/2 bands was based on correlation of molecular weights, expression and inhibition profiles with LC-MS/MS data and recombinant enzyme expression. Proteins were listed as anti-targets if at least 50% inhibition was observed as quantified relative to the DMSO control.
(§6) Compounds 1-20 were subjected to gel-based competitive ABPP profiling to assess potency and selectivity against several dozen FP-sensitive SHs in the mouse brain membrane proteome, which endogenously expresses LYPLA1 and LYPLA2, as well a diversity of potential SH anti-targets. Compounds were tested at 100 μM, 10 μM, 1 μM, and/or 0.1 μM compound concentration.

LYPLA2 = target: T3, LYPLA2 (Mus musculus, UniProt Q9WTL7); experiment: Gel-based competitive ABPP in vitro, mouse brain membrane proteome; format: biochemical; details: 30 min, one replicate; for inhibition at 0.1 µM: 0.1 μM compound, read-out: LYPLA2 % INH 0.1 μM; for inhibition at 1 µM: 1 μM compound, read-out: LYPLA2 % INH 1 μM; for inhibition at 10 µM: 10 μM compound, read-out: LYPLA2 % INH 10 μM; for inhibition at 100 µM: 100 μM compound, read-out: LYPLA2 % INH 100 μM
T3 construct: a complex proteome endogenously expressing LYPLA1/2 was incubated with test compound; from tissue; host or cells: mouse brain, membrane fraction
T3 sequence (Q9WTL7 whole entry): as the sequence (O95372 whole entry, canonical isoform) above, with A154N, S193T counted along it
Procedure: as §3, §4, §5, §6

LYPLA1 = target: T4, LYPLA1 (Mus musculus, UniProt P97823); experiment: as above; format: biochemical; details: 30 min, one replicate; for inhibition at 0.1 µM: 0.1 μM compound, read-out: LYPLA1 % INH 0.1 μM; for inhibition at 1 µM: 1 μM compound, read-out: LYPLA1 % INH 1 μM; for inhibition at 10 µM: 10 μM compound, read-out: LYPLA1 % INH 10 μM; for inhibition at 100 µM: 100 μM compound, read-out: LYPLA1 % INH 100 μM
T4 construct: a complex proteome endogenously expressing LYPLA1/2 was incubated with test compound; from tissue; host or cells: mouse brain, membrane fraction
T4 sequence (P97823 whole entry): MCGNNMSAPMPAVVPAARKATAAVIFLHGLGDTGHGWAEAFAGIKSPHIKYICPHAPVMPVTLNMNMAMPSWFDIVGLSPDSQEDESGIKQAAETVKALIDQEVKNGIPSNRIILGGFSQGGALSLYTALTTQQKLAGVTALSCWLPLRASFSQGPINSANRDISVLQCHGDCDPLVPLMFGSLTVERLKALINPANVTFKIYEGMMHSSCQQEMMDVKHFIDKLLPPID
Procedure: as §3, §4, §5, §6

PPT1 = target: T5, PPT1 (Homo sapiens, UniProt P50897); experiment: In situ inhibition of hPPT1 in transfected HEK293T cells, competitive ABPP with Compound 39 probe; format: cell-based; set-up: expressed in transfected cells; host or cells: HEK293T; details: 2 μM, hPPT1-transfected HEK293T cells, in situ
T5 sequence (P50897 28-306): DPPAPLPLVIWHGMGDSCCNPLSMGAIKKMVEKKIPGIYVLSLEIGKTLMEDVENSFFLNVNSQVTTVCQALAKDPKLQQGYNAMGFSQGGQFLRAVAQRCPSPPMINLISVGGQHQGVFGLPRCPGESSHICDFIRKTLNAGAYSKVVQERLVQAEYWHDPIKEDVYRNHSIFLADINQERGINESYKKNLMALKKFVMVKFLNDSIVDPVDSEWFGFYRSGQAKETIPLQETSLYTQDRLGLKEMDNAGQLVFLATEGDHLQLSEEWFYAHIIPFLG
Procedure: HEK293T cells were seeded at 2×10^5 per well on 6 well plates and grown for 48 h. They were then transfected with mABHD3 (pCMV-Sport6), hABHD4 (pcDNA3.1/myc-his), hPPT1 (pCMV6-XL5), or hPPT1 S115A (pCMV6-XL5), by incubating 0.5 μg of DNA with 3 μL of PEI MAX (1 mg/mL, Polysciences, Inc) in serum-free DMEM for 30 min, then adding them to cells. After 48 h cells were either treated with compound in situ, as described above, or harvested for in vitro studies. The […] PPT1 mutation was introduced using QuikChange II Site Directed Mutagenesis Kit (Agilent) with the following primers: […]
In situ inhibitor treatments of human cell lines were performed as described previously (Hsu et al., J Med Chem 56, 8270-8279, 2012). Briefly, PC3 or transfected HEK293T cells were grown to confluency in serum-containing media (RPMI or DMEM, respectively). The culture media was then removed and replaced with fresh media containing DMSO or inhibitor at the desired concentration and incubated for 4 hours in a tissue culture incubator (37° C., 5% CO2). Cells were then washed with PBS, harvested, washed with PBS once more, and lysed with a probe sonicator.
This possibility was explored by treating HEK293T cells transfected with human PPT1 (hPPT1) with Compound 37 (5 μM, 4 h pre-treatment) or DMSO followed by cell lysis and treatment with Compound 39 (5 μM, 1 h). A strong, but diffuse Compound 37-sensitive, Compound 39-labeled protein band was detected by gel-based ABPP in hPPT1-transfected, but not mock-transfected cell lysates (see FIG. 14), and this diffuse signal was compressed to a tight, faster-migrating band matching the predicted molecular weight of PPT1 following treatment with the glycosidase PNGaseF (see FIG. 14). Western blotting with an anti-PPT1 antibody confirmed a similar migration pattern for hPPT1 protein in transfected cell lysates (see FIG. 14, bottom panel).
A structurally diverse panel of N-hydroxy bicyclic hydantoin carbamates were assayed at 2 or 0.2 μM for in situ inhibition of hPPT1 in transfected HEK293T cells.

IC50 (human LYPLA1) [nM] | IC50 (human LYPLA2) [nM] | inhibition at 0.1 µM (LYPLA2) [%] | inhibition at 1 µM (LYPLA2) [%] | inhibition at 10 µM (LYPLA2) [%] | inhibition at 100 µM (LYPLA2) [%] | inhibition at 0.1 µM (LYPLA1) [%] | inhibition at 1 µM (LYPLA1) [%] | inhibition at 10 µM (LYPLA1) [%] | inhibition at 100 µM (LYPLA1) [%] | SMILES | Anti-target(s) 0.1 μM [1] | Anti-target(s) 1 μM [1] | Anti-target(s) 10 μM [1] | Anti-target(s) 100 μM [1] | hPPT1 (in situ), % @ 2 μM (PPT1) [% @ 2 μM]
225 | 384 | 50 | 100 | 100 | 100 | 50 | 100 | 100 | 100 | O=C(ON1C(=O)C2CN(C(=O)N3CCCC3)CCN2C1=O)N1CCC(CCc2ccc(Cl)cc2)CC1 (stereo not shown) [Compound 3, 1,3-dioxo-7-(pyrrolidine-1-carbonyl)hexahydroimidazo[1,5-a]pyrazin-2(3H)-yl 4-(4-chlorophenethyl)piperidine-1-carboxylate] | ABHD6 | FAAH,; also recorded: ABHD6 | FAAH,; also recorded: ABHD6 | FAAH,; also recorded: ABHD12,; also recorded: ABHD4,; also recorded: MAGL,; also recorded: ABHD6 | 
92 | 217 | 80 | 100 | 100 | 100 | 80 | 100 | 100 | 100 | CC(C)(C)CC(=O)N1CCN2C(=O)N(OC(=O)N3CCC(CCc4ccc(Cl)cc4)CC3)C(=O)C2C1 (stereo not shown) [Compound 4, 7-(3,3-dimethylbutanoyl)-1,3-dioxohexahydroimidazo[1,5-a]pyrazin-2(3H)-yl 4-(4-chlorophenethyl)piperidine-1-carboxylate] | ABHD6 | FAAH,; also recorded: ABHD6 | FAAH,; also recorded: ABHD12,; also recorded: MAGL,; also recorded: ABHD6 | FAAH,; also recorded: ABHD12,; also recorded: ABHD4,; also recorded: MAGL,; also recorded: ABHD6 | 
306 | 726 | 0 | 80 | 95 | 100 | 0 | 80 | 95 | 100 | O=C(ON1C(=O)C2CN(C(=O)c3ccc(Br)cc3)CCN2C1=O)N1CCC(CCc2ccc(Cl)cc2)CC1 (stereo not shown) [Compound 7, 7-(4-bromobenzoyl)-1,3-dioxohexahydroimidazo[1,5-a]pyrazin-2(3H)-yl 4-(4-chlorophenethyl)piperidine-1-carboxylate] | ABHD6 | ABHD6 | FAAH,; also recorded: ABHD12,; also recorded: ABHD6 | FAAH,; also recorded: ABHD12,; also recorded: ABHD4,; also recorded: MAGL,; also recorded: ABHD6 | 
 |  |  |  |  |  |  |  |  |  | COc1ccc(N2CCN(C(=O)ON3C(=O)C4CN(CC5CCN(C(=O)OC(C)(C)C)CC5)CCN4C3=O)CC2)cc1 (stereo not shown) [Compound 24, 7-((1-(tert-butoxycarbonyl)piperidin-4-yl)methyl)-1,3-dioxohexahydroimidazo[1,5-a]pyrazin-2(3H)-yl 4-(4-methoxyphenyl)piperazine-1-carboxylate] |  |  |  |  | 100
